In patent publication US20150258043A1, “USE OF SPHINGOID LONG CHAIN BASES AND THEIR ANALOGS IN TREATING AND PREVENTING BACTERIAL INFECTIONS” (YEDA RESEARCH AND DEVELOPMENT CO. LTD., priority 2012, published 2015):
“Also recorded” adds a separate entry of the source.

System: P. aeruginosa strains 762, PA14 and ATCC 27853
Assay: Pulmonary P. aeruginosa infection of CF and CerS2 null mice, inhalation treatment (bacteria in lung, sickness score)
Type: in vivo, mouse
Conditions: CF and CerS2 null mice; inhalation (125 μM) 1 h before or 1 h after intranasal infection with 1×10^8 CFU
Description: (A,B) The number of bacteria in the lungs and the overall sickness score (C,D) of WT, CerS2 null and CF mice 3-4 h after intranasal infection with 1×10^8 CFU of P. aeruginosa strains 762 (A,C) and CF mice with strains PA14 and ATCC 27853. Mice were inhaled with 0.9% NaCl or acid ceramidase 1 h prior (b.i.) to infection, or with sphingosine or FTY720 1 h before (b.i.) or 1 h after (a.i.) infection. Sickness score 4, severely affected (unresponsive animal); score 3 affected, (heavy breathing, low body temperature, ruffled fur) score 2, moderately affected (ruffled fur, heavy breathing); score 1, slightly affected (ruffled fur); score 0, unaffected (healthy appearance). Data are means±s.d., n=4.
Pulmonary infection of CF or CerS2 mice was achieved by intranasal application of P. aeruginosa strains 762, ATCC 27853 or PA14. Mice inhaled acid ceramidase, sphingosine, FTY720 or a combination of sphingosine and ceramide 1 hr before or after pulmonary infection. The number of bacteria in the lung was determined by culturing aliquots of lysed lungs on agar plates. Clinical symptoms of the infection were scored.
Inhalation was performed with a PARI Boy SX nebulizer (PARI GmbH, Starnberg, Germany). This nebulizer generates a fine aerosol mist by pumping the fluid with an air jet. The mice inhaled the aerosol via a mask that is part of an oral inhalation device for children (LL-Nebulizer); the mask was clipped at the sides to cover only the mouse's nose and the surrounding part of the face. […]
P. aeruginosa were grown for 14 to 14.5 h on fresh tryptic soy agar (TSA) plates (Becton Dickinson Biosciences, Germany). […] The bacterial OD was determined, and the bacteria were diluted in prewarmed H/S to a concentration of 1×10^8 CFU per 20 μL. […]
Lungs were removed, homogenised and lysed for 10 min in 5 mg/ml saponin to release intracellular bacteria. […] Bacterial counts (CFU) were counted after 18 h.

`CCCCCCCCCCCCC/C=C/[C@@H](O)[C@@H](N)CO` (stereo in doubt) [D-erythro-Sphingosine, (2S,3R)-2-aminooctadec-4-ene-1,3-diol] was tested, and the “protection from pulmonary P. aeruginosa infection” value was “completely protected CF and CerS2 null mice from P. aeruginosa infection and even eliminated an existing infection; also recorded: rescue CF and CerS2 null mice from pulmonary P. aeruginosa infection; also recorded: prevents pulmonary P. aeruginosa infection”.
